Experimental data published in patent US8546381B2, “Bridged heterocyclic compounds and methods of use” (Medivation Technologies, Inc., priority 2008, dated 2013).

molecular target: T1, human recombinant serotonin (5-Hydroxytryptamine) 5-HT6 receptor (Homo sapiens, UniProt P50406); assay: Serotonin 5-HT6 radioligand binding ([3H]LSD); conditions: read-out: Serotonin 5-HT6, inhibition of ligand binding (1 μM)
T1 construct: expressed in transfected cells; host or cells: human HeLa cells
Experimental: To evaluate in radioligand binding assays the activity of compounds of the invention, human recombinant serotonin (5-Hydroxytryptamine) 5-HT6 receptor expressed in human HeLa cells (Monsma, F. J. Jr. et al., Mol. Pharmacol. 43:320, 1993) in a modified Tris-HCl buffer (50 mM Tris-HCl, pH 7.4, 150 mM NaCl, 2 mM Ascorbic Acid, 0.001% BSA) was used. Compounds of the invention were incubated with 1.5 nM [3H]Lysergic acid diethylamide (LSD) for 120 minutes at 37° C. Non-specific binding was estimated in the presence of 5 μM Serotonin (5-HT). Receptor proteins were filtered and washed, the filters were then counted to determine [3H]LSD specifically bound. Compounds were screened at 1 μM or lower, using 1% DMSO as vehicle. Biochemical assay results are presented as the percent inhibition of specific binding in Table 4.

T1 sequence (P50406 whole entry): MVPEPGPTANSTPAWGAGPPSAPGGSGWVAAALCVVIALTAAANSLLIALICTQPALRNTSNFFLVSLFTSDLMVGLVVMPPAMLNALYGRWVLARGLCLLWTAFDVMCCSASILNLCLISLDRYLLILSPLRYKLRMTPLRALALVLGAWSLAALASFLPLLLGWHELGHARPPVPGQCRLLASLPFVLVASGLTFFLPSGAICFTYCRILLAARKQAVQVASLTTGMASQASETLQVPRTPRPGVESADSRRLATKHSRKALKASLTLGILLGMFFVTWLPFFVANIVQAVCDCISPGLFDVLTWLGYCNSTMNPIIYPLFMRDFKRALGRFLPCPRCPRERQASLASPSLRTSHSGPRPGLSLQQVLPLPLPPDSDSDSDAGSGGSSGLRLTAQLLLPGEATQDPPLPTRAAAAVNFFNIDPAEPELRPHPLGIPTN

Row | SMILES | inhibition at 1 µM
1 | Cc1ccc2c(c1)c1c(n2C(=O)Cc2ccc(Cl)cc2)CC2CCC1N2C (stereo not shown) [Compound 162] | 23%
2 | Cc1ccc2c(c1)c1c(n2CCc2ccc(C)nc2)CC2CCC1N2C (stereo not shown) [Compound 32] | 13%
3 | COc1ccc(CCn2c3c(c4cc(C)ccc42)C2CCC(C3)N2C)cc1 (stereo not shown) [Compound 83] | 23%
4 | Cc1cncc(CCn2c3c(c4cc(Cl)ccc42)C2CCC(C3)N2C)c1 (stereo not shown) [Compound 89] | 10%
5 | Cc1ccc2c(c1)c1c(n2CCCc2ccc(Cl)cc2)CC2CCC1N2C (stereo not shown) [Compound 85] | 52%
6 | C/C(=C\n1c2c(c3cc(C)ccc31)C1CCC(C2)N1C)c1ccc(F)cc1 (stereo not shown) [Compound 124] | 85%
7 | CN1C2CCC1c1c(n(C#Cc3ccc(F)cc3)c3ccc(Cl)cc13)C2 (stereo not shown) [Compound 138] | 45%
8 | C/C(=C/n1c2c(c3ccccc31)[C@@H]1CC[C@H](C2)N1C)c1ccc(F)cc1 [Compound 121] | 65%
9 | Cc1ccc2c(c1)c1c(n2CCC#N)CC2CCC1N2C (stereo not shown) [Compound 103] | 7%
10 | CN1C2CCC1c1c(n(CCc3cncc(Cl)c3)c3ccc(Cl)cc13)C2 (stereo not shown) [Compound 87] | 23%
11 | Cc1ccc(CCn2c3c(c4cc(Cl)ccc42)C2CCC(C3)N2C)cn1 (stereo not shown) [Compound 79] | 10%
12 | COc1ccc(CCn2c3c(c4cc(Cl)ccc42)C2CCC(C3)N2C)cc1 (stereo not shown) [Compound 84] | 13%
13 | Cc1ncc(CCn2c3c(c4cc(Cl)ccc42)C2CCC(C3)N2C)cn1 (stereo not shown) [Compound 82] | 13%

molecular target: T2, human recombinant adrenergic α2A receptor (Homo sapiens, UniProt P08913); assay: Adrenergic α2A radioligand binding ([3H]MK-912); conditions: 1 μM; read-out: Adrenergic α2A, inhibition of ligand binding (1 μM)
T2 construct: expressed in transfected cells; host or cells: insect Sf9 cells
T2 sequence (P08913 1-465): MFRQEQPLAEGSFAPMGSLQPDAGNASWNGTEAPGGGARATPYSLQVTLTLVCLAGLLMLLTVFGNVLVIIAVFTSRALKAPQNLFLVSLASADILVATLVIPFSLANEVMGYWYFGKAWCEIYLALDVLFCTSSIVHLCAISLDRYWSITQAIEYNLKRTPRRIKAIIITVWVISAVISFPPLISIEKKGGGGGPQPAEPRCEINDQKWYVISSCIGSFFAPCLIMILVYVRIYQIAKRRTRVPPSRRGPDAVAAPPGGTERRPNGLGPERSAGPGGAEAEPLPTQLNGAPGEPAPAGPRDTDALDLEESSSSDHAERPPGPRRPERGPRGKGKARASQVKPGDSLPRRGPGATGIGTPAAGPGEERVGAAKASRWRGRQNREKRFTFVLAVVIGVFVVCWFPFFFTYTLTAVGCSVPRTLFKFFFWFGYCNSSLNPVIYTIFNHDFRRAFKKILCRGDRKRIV
Experimental: To evaluate in radioligand binding assays the activity of compounds of the invention, human recombinant adrenergic α2A receptor expressed in insect Sf9 cells (Uhlen S et al. J Pharmacol Exp Ther. 271:1558, 1994) in a modified Tris-HCl buffer (50 mM Tris-HCl, pH 7.4, 12.5 mM MgCl2, 2 mM EDTA) was used. Compounds of invention were incubated with 1 nM [^3H]MK-912 for 60 minutes at 25° C. MK912 is (2S-trans)-1,3,4,5′,6,6′,7,12b-octahydro-1′,3′-dimethyl-spiro[2H-benzofuro[2,3-a]quinolizine-2,4′(1′H) -pyrimidin]-2′(3′H)-one hydrochloride Non-specific binding was estimated in the presence of 10 μM WB-4101 (2-(2,6-Dimethoxyphenoxyethyl)aminomethyl-1,4-benzodioxane hydrochloride). Receptor proteins were filtered and washed, the filters were then counted to determine [^3H]MK-912 specifically bound. Compounds were screened at 1 μM or lower, using 1% DMSO as vehicle. Biochemical assay results are presented as the percent inhibition of specific binding in Table 3.

Row | SMILES | inhibition at 1 µM
14 | Cc1ccc2c(c1)c1c(n2C(=O)Cc2ccc(Cl)cc2)CC2CCC1N2C (stereo not shown) [Compound 162] | 59%
15 | Cc1ccc2c(c1)c1c(n2CCc2ccc(C)nc2)CC2CCC1N2C (stereo not shown) [Compound 32] | 17%
16 | COc1ccc(CCn2c3c(c4cc(C)ccc42)C2CCC(C3)N2C)cc1 (stereo not shown) [Compound 83] | 77%
17 | Cc1cncc(CCn2c3c(c4cc(Cl)ccc42)C2CCC(C3)N2C)c1 (stereo not shown) [Compound 89] | 5%
18 | Cc1ccc2c(c1)c1c(n2CCCc2ccc(Cl)cc2)CC2CCC1N2C (stereo not shown) [Compound 85] | 73%
19 | C/C(=C\n1c2c(c3cc(C)ccc31)C1CCC(C2)N1C)c1ccc(F)cc1 (stereo not shown) [Compound 124] | 91%
20 | CN1C2CCC1c1c(n(C#Cc3ccc(F)cc3)c3ccc(Cl)cc13)C2 (stereo not shown) [Compound 138] | 95%
21 | C/C(=C/n1c2c(c3ccccc31)[C@@H]1CC[C@H](C2)N1C)c1ccc(F)cc1 [Compound 121] | 55%
22 | Cc1ccc2c(c1)c1c(n2CCC#N)CC2CCC1N2C (stereo not shown) [Compound 103] | 57%
23 | CN1C2CCC1c1c(n(CCc3cncc(Cl)c3)c3ccc(Cl)cc13)C2 (stereo not shown) [Compound 87] | 21%
24 | Cc1ccc(CCn2c3c(c4cc(Cl)ccc42)C2CCC(C3)N2C)cn1 (stereo not shown) [Compound 79] | 14%
25 | COc1ccc(CCn2c3c(c4cc(Cl)ccc42)C2CCC(C3)N2C)cc1 (stereo not shown) [Compound 84] | 76%
26 | Cc1ncc(CCn2c3c(c4cc(Cl)ccc42)C2CCC(C3)N2C)cn1 (stereo not shown) [Compound 82] | 5%

molecular target: T3, human recombinant adrenergic α1D receptor (Homo sapiens, UniProt P25100); assay: Adrenergic α1D radioligand binding ([3H]Prozosin); conditions: 1 μM; read-out: Adrenergic α1D, inhibition of ligand binding (1 μM)
T3 construct: expressed in transfected cells; host or cells: HEK-293 cells
T3 sequence (P25100 1-572): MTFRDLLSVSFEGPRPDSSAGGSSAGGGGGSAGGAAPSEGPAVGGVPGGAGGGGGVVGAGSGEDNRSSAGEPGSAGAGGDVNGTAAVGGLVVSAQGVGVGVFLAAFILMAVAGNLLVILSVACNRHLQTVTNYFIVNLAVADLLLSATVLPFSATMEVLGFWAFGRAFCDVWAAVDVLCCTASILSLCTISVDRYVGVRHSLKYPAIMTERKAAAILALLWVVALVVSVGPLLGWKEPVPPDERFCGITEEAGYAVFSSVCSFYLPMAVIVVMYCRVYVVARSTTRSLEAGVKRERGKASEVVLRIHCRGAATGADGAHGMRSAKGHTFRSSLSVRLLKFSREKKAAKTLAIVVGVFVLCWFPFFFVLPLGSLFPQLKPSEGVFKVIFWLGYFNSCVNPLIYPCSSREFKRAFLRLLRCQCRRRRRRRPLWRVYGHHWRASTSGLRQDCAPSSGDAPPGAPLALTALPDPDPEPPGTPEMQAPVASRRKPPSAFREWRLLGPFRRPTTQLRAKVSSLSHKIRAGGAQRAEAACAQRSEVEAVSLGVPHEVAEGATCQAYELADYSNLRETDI
Experimental: To evaluate in radioligand binding assays the activity of compounds of the invention, human recombinant adrenergic α1D receptor expressed in human embryonic kidney (HEK-293) cells (Kenny, B. A. et al. Br. J. Pharmacol. 115(6):981, 1995) in a 50 mM Tris-HCl buffer, pH 7.4, was used. Compounds of invention were incubated with 0.6 nM [^3H]Prozosin for 60 minutes at 25° C. Non-specific binding was estimated in the presence of 10 μM phentolamine. Receptor proteins were filtered and washed, the filters were then counted to determine [^3H]Prozosin specifically bound. Compounds were screened at 1 μM or lower, using 1% DMSO as vehicle. Biochemical assay results are presented as the percent inhibition of specific binding in Table 3.

Row | SMILES | inhibition at 1 µM
27 | Cc1ccc2c(c1)c1c(n2C(=O)Cc2ccc(Cl)cc2)CC2CCC1N2C (stereo not shown) [Compound 162] | 34%
28 | Cc1ccc2c(c1)c1c(n2CCc2ccc(C)nc2)CC2CCC1N2C (stereo not shown) [Compound 32] | 53%
29 | COc1ccc(CCn2c3c(c4cc(C)ccc42)C2CCC(C3)N2C)cc1 (stereo not shown) [Compound 83] | 80%
30 | Cc1cncc(CCn2c3c(c4cc(Cl)ccc42)C2CCC(C3)N2C)c1 (stereo not shown) [Compound 89] | 44%
31 | Cc1ccc2c(c1)c1c(n2CCCc2ccc(Cl)cc2)CC2CCC1N2C (stereo not shown) [Compound 85] | 43%
32 | C/C(=C\n1c2c(c3cc(C)ccc31)C1CCC(C2)N1C)c1ccc(F)cc1 (stereo not shown) [Compound 124] | 67%
33 | CN1C2CCC1c1c(n(C#Cc3ccc(F)cc3)c3ccc(Cl)cc13)C2 (stereo not shown) [Compound 138] | 60%
34 | C/C(=C/n1c2c(c3ccccc31)[C@@H]1CC[C@H](C2)N1C)c1ccc(F)cc1 [Compound 121] | 80%
35 | Cc1ccc2c(c1)c1c(n2CCC#N)CC2CCC1N2C (stereo not shown) [Compound 103] | 86%
36 | CN1C2CCC1c1c(n(CCc3cncc(Cl)c3)c3ccc(Cl)cc13)C2 (stereo not shown) [Compound 87] | 70%
37 | Cc1ccc(CCn2c3c(c4cc(Cl)ccc42)C2CCC(C3)N2C)cn1 (stereo not shown) [Compound 79] | 72%
38 | COc1ccc(CCn2c3c(c4cc(Cl)ccc42)C2CCC(C3)N2C)cc1 (stereo not shown) [Compound 84] | 19%
39 | Cc1ncc(CCn2c3c(c4cc(Cl)ccc42)C2CCC(C3)N2C)cn1 (stereo not shown) [Compound 82] | 40%

molecular target: T4, human recombinant serotonin (5-Hydroxytryptamine) 5-HT2A receptor (Homo sapiens, UniProt P28223); assay: Serotonin 5-HT2A radioligand binding ([3H]Ketanserin); conditions: read-out: Serotonin 5-HT2A, inhibition of ligand binding (1 μM)
T4 construct: expressed in transfected cells; host or cells: CHO-K1 cells
T4 sequence (P28223 whole entry): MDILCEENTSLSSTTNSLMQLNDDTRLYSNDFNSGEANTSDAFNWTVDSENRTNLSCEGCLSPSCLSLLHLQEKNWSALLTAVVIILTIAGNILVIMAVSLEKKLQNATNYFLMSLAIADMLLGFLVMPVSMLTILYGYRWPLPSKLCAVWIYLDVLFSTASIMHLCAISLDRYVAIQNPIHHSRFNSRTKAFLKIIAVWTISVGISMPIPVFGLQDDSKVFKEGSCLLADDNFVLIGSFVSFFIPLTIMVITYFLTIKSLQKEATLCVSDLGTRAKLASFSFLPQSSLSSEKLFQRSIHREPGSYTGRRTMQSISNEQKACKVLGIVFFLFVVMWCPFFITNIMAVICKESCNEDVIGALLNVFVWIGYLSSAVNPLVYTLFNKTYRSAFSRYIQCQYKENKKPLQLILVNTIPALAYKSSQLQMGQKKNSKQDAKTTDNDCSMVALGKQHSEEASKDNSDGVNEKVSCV
Experimental: To evaluate in radioligand binding assays the activity of compounds of the invention, human recombinant serotonin (5-Hydroxytryptamine) 5-HT2A receptor expressed in Chinese hamster ovary (CHO-K1) cells (Bonhaus, D. W. et al. Br. J. Pharmacol. 115:622, 1995; Saucier, C. and Albert, P. R., J. Neurochem. 68:1998, 1997) in a 50 mM Tris-HCl buffer, pH 7.4, was used. Compounds of the invention were incubated with 0.5 nM [^3H]Ketanserin for 60 minutes at 25° C. Non-specific binding was estimated in the presence of 1 μM Mianserin. Receptor proteins were filtered and washed, the filters were then counted to determine [^3H]Ketanserin specifically bound. Compounds were screened at 1 μM or lower, using 1% DMSO as vehicle. Biochemical assay results are presented as the percent inhibition of specific binding in Table 4.

Row | SMILES | inhibition at 1 µM
40 | Cc1ccc2c(c1)c1c(n2C(=O)Cc2ccc(Cl)cc2)CC2CCC1N2C (stereo not shown) [Compound 162] | 92%
41 | Cc1ccc2c(c1)c1c(n2CCc2ccc(C)nc2)CC2CCC1N2C (stereo not shown) [Compound 32] | 15%
42 | COc1ccc(CCn2c3c(c4cc(C)ccc42)C2CCC(C3)N2C)cc1 (stereo not shown) [Compound 83] | 71%
43 | Cc1cncc(CCn2c3c(c4cc(Cl)ccc42)C2CCC(C3)N2C)c1 (stereo not shown) [Compound 89] | 27%
44 | Cc1ccc2c(c1)c1c(n2CCCc2ccc(Cl)cc2)CC2CCC1N2C (stereo not shown) [Compound 85] | 95%
45 | C/C(=C\n1c2c(c3cc(C)ccc31)C1CCC(C2)N1C)c1ccc(F)cc1 (stereo not shown) [Compound 124] | 97%
46 | CN1C2CCC1c1c(n(C#Cc3ccc(F)cc3)c3ccc(Cl)cc13)C2 (stereo not shown) [Compound 138] | 98%
47 | C/C(=C/n1c2c(c3ccccc31)[C@@H]1CC[C@H](C2)N1C)c1ccc(F)cc1 [Compound 121] | 98%
48 | Cc1ccc2c(c1)c1c(n2CCC#N)CC2CCC1N2C (stereo not shown) [Compound 103] | 13%
49 | CN1C2CCC1c1c(n(CCc3cncc(Cl)c3)c3ccc(Cl)cc13)C2 (stereo not shown) [Compound 87] | 51%
50 | Cc1ccc(CCn2c3c(c4cc(Cl)ccc42)C2CCC(C3)N2C)cn1 (stereo not shown) [Compound 79] | 28%
51 | COc1ccc(CCn2c3c(c4cc(Cl)ccc42)C2CCC(C3)N2C)cc1 (stereo not shown) [Compound 84] | 77%
52 | Cc1ncc(CCn2c3c(c4cc(Cl)ccc42)C2CCC(C3)N2C)cn1 (stereo not shown) [Compound 82] | -16%
